Source: ChEMBL document CHEMBL5500399, “Design, Synthesis, and Biological Evaluation of 1,2,4-Oxadiazole Derivatives Containing an Aryl Carboxylic Acid Moiety as Potent Sarbecovirus Papain-like Protease Inhibitors” (J Med Chem, 2024)
Calls of active or inactive are those of the source. The calls are words filed in the database; no cut-off is given here.

Experiments:
[1] = biological target: T1, Replicase polyprotein 1ab (Severe acute respiratory syndrome coronavirus 2, UniProt P0DTD1); assay: Inhibition of SARS-CoV2 PLpro using Z-RLRGG-AMC as substrate preincubated for 10 mins followed by substrate addition and measured after 20 sec shaking for 30 mins by time-resolved fluorescence assay
[2] = biological target: Replicase polyprotein 1ab (Severe acute respiratory syndrome coronavirus 2) (UniProt P0DTD1); assay: Binding affinity to SARS-CoV2 PLpro assessed as stabilization by measuring increase melting temperature by thermal shift assay
[3] = Metabolic stability in human liver microsomes assessed as half life at 1 uM preincubated for 5 mins followed by NADPH addition and measured after 30 mins by LC-MS/MS analysis; format: ADME, Microsome; conditions: time 35 min
[4] = Metabolic stability in CD-1 mouse liver microsomes assessed as half life at 1 uM preincubated for 5 mins followed by NADPH addition and measured after 30 mins by LC-MS/MS analysis; format: ADME, Microsome; conditions: time 35 min
[5] = Metabolic stability in human liver microsomes assessed as compound remaining at 1 uM preincubated for 5 mins followed by NADPH addition and measured after 30 mins by LC-MS/MS analysis; format: ADME, Microsome; conditions: read-out: Stability
[6] = Metabolic stability in CD-1 mouse liver microsomes assessed as compound remaining at 1 uM preincubated for 5 mins followed by NADPH addition and measured after 30 mins by LC-MS/MS analysis; format: ADME, Microsome; conditions: read-out: Stability
[7] = biological target: T1, Replicase polyprotein 1ab; assay: Binding affinity to SARS-CoV2 PLpro by biolayer interferometry analysis
[8] = biological target: Replicase polyprotein 1ab (Severe acute respiratory syndrome coronavirus 2) (UniProt P0DTD1); assay: Inhibition of SARS-CoV2 PLpro cleavage activity using 2Ub-K48 as substrate incubated overnight by SYPRO Ruby staining based SDS-PAGE analysis
[9] = biological target: Replicase polyprotein 1ab (Severe acute respiratory syndrome coronavirus 2) (UniProt P0DTD1); assay: Inhibition of RLRGG binding to SARS-CoV2 PLpro
[10] = tested on: Severe acute respiratory syndrome-related coronavirus; assay: Inhibition of SARS-CoV PLpro using Z-RLRGG-AMC as substrate preincubated for 10 mins followed by substrate addition and measured after 20 sec shaking for 30 mins by time-resolved fluorescence assay
[11] = biological target: Replicase polyprotein 1ab (Middle East respiratory syndrome-related coronavirus (isolate UnitedKingdom/H123990006/2012) (Betacoronavirus England 1) (Humancoronavirus EMC)) (UniProt K9N7C7); assay: Inhibition of MERS-CoV PLpro using Z-RLRGG-AMC as substrate preincubated for 10 mins followed by substrate addition and measured after 20 sec shaking for 30 mins by time-resolved fluorescence assay; conditions: time 40.3 min
[12] = biological target: Replicase polyprotein 1ab (Severe acute respiratory syndrome coronavirus 2) (UniProt P0DTD1); assay: Potency index, ratio of GRL0617 IC50 to test compound IC50 for inhibition of SARS-CoV2 PLpro
[13] = Metabolic stability in human hepatocytes assessed as half life at 1 uM measured upto 30 mins; format: ADME, cell-based, Hepatocyte
[14] = Metabolic stability in mouse hepatocytes assessed as half life at 1 uM measured upto 30 mins; format: ADME, cell-based, Hepatocyte
[15] = Metabolic stability in human hepatocytes assessed as intrinsic clearance per million cells at 1 uM measured upto 30 mins; format: ADME, cell-based, Hepatocyte; conditions: read-out: CLH
[16] = Metabolic stability in mouse hepatocytes assessed as intrinsic clearance per million cells at 1 uM measured upto 30 mins; format: ADME, cell-based, Hepatocyte; conditions: read-out: CLH
[17] = Metabolic stability in human hepatocytes assessed as compound remaining at 1 uM measured after 30 mins; format: ADME, cell-based, Hepatocyte; conditions: read-out: Stability
[18] = Metabolic stability in mouse hepatocytes assessed as compound remaining at 1 uM measured after 30 mins; format: ADME, cell-based, Hepatocyte; conditions: read-out: Stability

## Cc1ccc(NCc2ccc(S(C)(=O)=O)cc2)cc1-c1noc(C(C)c2cccc3ccccc23)n1 (centres undefined)
[1]
  IC50: 59.2 µM

## CC(c1nc(-c2ccc(NCc3ccc(C(=O)O)cc3)cc2)no1)c1cccc2ccccc12 (centres undefined)
[1]
  IC50: 50.2 µM

## Cc1ccc(-c2noc(C(c3ccccc3)c3ccccc3)n2)cc1NCc1ccc(C(=O)O)s1
[1]
  IC50: 9 µM
[2]
  Activity: Active

## CC(c1noc(-c2ccc(-c3ccc(C(=O)O)s3)cc2)n1)c1cccc2ccccc12 (centres undefined)
[1]
  IC50: 2.1 µM

## Cc1ccc(NC2CCCCC2)cc1-c1noc(C(C)c2cccc3ccccc23)n1 (centres undefined)
[1]
  IC50: 101 µM

## Cc1ccc(NC2CCCC(C(=O)O)C2)cc1-c1noc(C(C)c2cccc3ccccc23)n1 (centres undefined)
[1]
  IC50: 35.1 µM

## Cc1ccc(-c2noc(-c3ccccc3)n2)cc1NCc1ccc(C(=O)O)s1
[1]
  IC50: 59 µM

## CC(c1noc(-c2ccc(-c3ccc(C#N)s3)cc2)n1)c1cccc2ccccc12 (centres undefined)
[1]
  IC50: 31.4 µM

## CC(c1nc(-c2cc(NCc3ccc(C(=O)O)cc3)ccc2Br)no1)c1cccc2ccccc12 (centres undefined)
[1]
  IC50: 2.1 µM

## COc1ccc2cc([C@H](C)c3nc(-c4ccc(C)c(NCc5ccc(C(=O)O)s5)c4)no3)ccc2c1
[1]
  IC50: 5.8 µM

## Cc1ccc(-c2noc(C(C)c3cccc(-c4cccs4)c3)n2)cc1NCc1ccc(C(=O)O)s1 (centres undefined)
[1]
  IC50: 4.1 µM
[2]
  Activity: Active

## CC(c1nc(-c2ccc(NCc3ccc(C(=O)O)s3)cc2)no1)c1cccc2ccccc12 (centres undefined)
[1]
  IC50: 0.2 µM
[3]
  half-life at 1 µM: > 1.55 h
[4]
  half-life at 1 µM: > 1.55 h
[5]
  remaining at 0.5 h, 1 µM: 102%
[6]
  remaining at 0.5 h, 1 µM: 93.8%
[7]
  Kd: 13.6 µM
[8]
  inhibition: Active
[9]
  inhibition: Active
[10]
  inhibition: Active
[11]
  inhibition: Active
[2]
  Activity: Active

## CC(c1nc(-c2ccc(Nc3ccc(C(=O)O)cc3)cc2)no1)c1cccc2ccccc12 (centres undefined)
[1]
  IC50: 4.2 µM

## CONC(=O)c1ccc(-c2ccc(-c3noc(C(C)c4cccc5ccccc45)n3)cc2)cc1 (centres undefined)
[1]
  IC50: 0.9 µM

## Cc1ccc(-c2noc(Cc3cccc(-c4cccs4)c3)n2)cc1NCc1ccc(C(=O)O)s1
[1]
  IC50: 6.8 µM

## COc1ccc(-c2noc(C(C)c3cccc4ccccc34)n2)cc1NCc1ccc(C(=O)O)s1 (centres undefined)
[1]
  IC50: 1.3 µM

## Cc1ccc(-c2noc(C(C)c3ccc4c(c3)[nH]c3ccc(Cl)cc34)n2)cc1NCc1ccc(C(=O)O)s1 (centres undefined)
[1]
  IC50: 1.9 µM
[7]
  Kd: 13.6 µM

## CC(c1nc(-c2ccc(N(C)Cc3ccc(C(=O)O)s3)cc2)no1)c1cccc2ccccc12 (centres undefined)
[1]
  IC50: 4 µM

## Cc1ccc(-c2noc(C(C)c3cccc4ccccc34)n2)cc1NCc1ccc(C(=O)O)s1 (centres undefined)
[1]
  IC50: 0.1 µM
[12]
  Ratio IC50: 10

## COc1ccc2cc(C(C)c3nc(-c4ccc(C)c(NCc5ccc(C(=O)O)s5)c4)no3)ccc2c1 (racemic)
[1]
  IC50: 5.9 µM

## Cc1ccc(Nc2ccc(C(=O)O)cc2)cc1-c1noc(C(C)c2cccc3ccccc23)n1 (centres undefined)
[1]
  IC50: 10.7 µM

## Cc1ccc(NC2CCC(C#N)CC2)cc1-c1noc(C(C)c2cccc3ccccc23)n1 (centres undefined)
[1]
  IC50: > 200 µM

## CC(c1nc(-c2ccc(-c3ccc(C(=O)O)cc3)cc2)no1)c1cccc2ccccc12 (centres undefined)
[1]
  IC50: 11.7 µM

## COC1CCC(Nc2ccc(C)c(-c3noc(C(C)c4cccc5ccccc45)n3)c2)CC1 (centres undefined)
[1]
  IC50: 114 µM

## CC(c1ncc(-c2ccc(-c3ccc(C#N)s3)cc2)o1)c1cccc2ccccc12 (centres undefined)
[1]
  IC50: 20.8 µM

## CC(c1nc(-c2cc(NCc3ccc(C(=O)O)cc3)cc(C(F)(F)F)c2)no1)c1cccc2ccccc12 (centres undefined)
[1]
  IC50: 0.2 µM
[13]
  half-life at 1 µM: 0.608 h
[14]
  half-life at 1 µM: 0.278 h
[15]
  hepatocyte CLint at 1 µM: 19 µL/min/1e6 cells
[16]
  hepatocyte CLint at 1 µM: 41.5 µL/min/1e6 cells
[17]
  remaining at 0.5 h, 1 µM: 56.6%
[18]
  remaining at 0.5 h, 1 µM: 28.8%
[7]
  Kd: 13.6 µM

## Cc1ccc(-c2noc(C(C)c3ccc(CC(C)C)cc3)n2)cc1NCc1ccc(C(=O)O)s1 (centres undefined)
[1]
  IC50: 3.6 µM

## Cc1ccc(-c2noc(-c3cccc4ccccc34)n2)cc1NCc1ccc(C(=O)O)s1
[1]
  IC50: 11.6 µM

## COc1ccc2cc([C@@H](C)c3nc(-c4ccc(C)c(NCc5ccc(C(=O)O)s5)c4)no3)ccc2c1
[1]
  IC50: 10.5 µM

## CC(c1nc(-c2cccc(NCc3ccc(C(=O)O)s3)c2)no1)c1cccc2ccccc12 (centres undefined)
[1]
  IC50: 7.6 µM

## Cc1ccc(-c2noc(C(C)c3cccc(Oc4ccccc4)c3)n2)cc1NCc1ccc(C(=O)O)s1 (centres undefined)
[1]
  IC50: 4.4 µM
[3]
  half-life at 1 µM: > 1.55 h
[4]
  half-life at 1 µM: > 1.55 h
[5]
  remaining at 0.5 h, 1 µM: 87%
[6]
  remaining at 0.5 h, 1 µM: 80%
[8]
  inhibition: Active
[9]
  inhibition: Active
[10]
  inhibition: Active
[11]
  inhibition: Active

## Cc1ccc(NCc2cccc(C(=O)O)c2)cc1-c1noc(C(C)c2cccc3ccccc23)n1 (centres undefined)
[1]
  IC50: 11.1 µM

## Cc1ccc(-c2noc(C(C)c3ccc(N4Cc5ccccc5C4=O)cc3)n2)cc1NCc1ccc(C(=O)O)s1 (centres undefined)
[1]
  IC50: 3.9 µM

## COC(=O)c1ccc(Nc2ccc(C)c(-c3noc(C(C)c4cccc5ccccc45)n3)c2)cc1 (centres undefined)
[1]
  IC50: 70.9 µM

## Cc1ccc(-c2noc([C@@H](C)c3ccc(-c4ccccc4)c(F)c3)n2)cc1NCc1ccc(C(=O)O)s1
[1]
  IC50: 3.4 µM

## Cc1ccc(NCc2ccc(C(=O)O)o2)cc1-c1noc(C(C)c2cccc3ccccc23)n1 (centres undefined)
[1]
  IC50: 14.4 µM

## Cc1ccc(NCc2ccc(C(=O)O)s2)cc1-c1noc(C(C)c2cccc3ccccc23)n1 (centres undefined)
[1]
  IC50: 10.4 µM

## Cc1ccc(-c2noc(C(O)c3ccccc3)n2)cc1NCc1ccc(C(=O)O)s1 (centres undefined)
[1]
  IC50: 435 µM

## Cc1ccc(NCc2ccc(O)cc2)cc1-c1noc(C(C)c2cccc3ccccc23)n1 (centres undefined)
[1]
  IC50: 176 µM

## Cc1ccc(-c2noc(-c3ccc(-c4ccccc4)cc3)n2)cc1NCc1ccc(C(=O)O)s1
[1]
  IC50: 25.5 µM

## Cc1ccc(N)cc1-c1noc(C(C)c2cccc3ccccc23)n1 (centres undefined)
[1]
  IC50: > 200 µM

## Cc1ccc(-c2noc(C(C)c3cccc(-c4ccccc4)c3)n2)cc1NCc1ccc(C(=O)O)s1 (centres undefined)
[1]
  IC50: 4.3 µM

## COC(=O)c1ccc(CNc2ccc(C)c(-c3noc(C(C)c4cccc5ccccc45)n3)c2)cc1 (centres undefined)
[1]
  IC50: > 200 µM

## Cc1ccc(NC2CCC(C(=O)O)CC2)cc1-c1noc(C(C)c2cccc3ccccc23)n1 (centres undefined)
[1]
  IC50: 22.7 µM

## Cc1ccc(NCc2ccc(C(=O)O)cc2)cc1-c1noc(C(C)c2cccc3ccccc23)n1 (centres undefined)
[1]
  IC50: 11.2 µM

## Cc1ccc(NCc2ccc(C#N)cc2)cc1-c1noc(C(C)c2cccc3ccccc23)n1 (centres undefined)
[1]
  IC50: > 200 µM

## Cc1ccc(-c2noc(C(C)(C)c3ccc(-c4ccccc4)cc3)n2)cc1NCc1ccc(C(=O)O)s1
[1]
  IC50: 35.4 µM

## Cc1ccc(-c2noc(C(C)c3cccc4ccccc34)n2)cc1NCc1ccc(C(=O)O)cc1 (centres undefined)
[1]
  IC50: 0.2 µM

## CC(c1ncc(-c2ccc(-c3ccc(C(=O)O)s3)cc2)o1)c1cccc2ccccc12 (centres undefined)
[1]
  IC50: 7.7 µM

## Cc1ccc(-c2noc(C(C)c3cccc(C(O)c4ccccc4)c3)n2)cc1NCc1ccc(C(=O)O)s1 (centres undefined)
[1]
  IC50: 11.1 µM

## CC(c1nc(-c2cccc(NCc3ccc(C(=O)O)o3)c2)no1)c1cccc2ccccc12 (centres undefined)
[1]
  IC50: 96.5 µM

## CC(c1nc(-c2cccc(NCc3ccc(C(=O)O)cc3)c2)no1)c1cccc2ccccc12 (centres undefined)
[1]
  IC50: 7.5 µM

## CC(c1nc(-c2ccc(-c3ccc(C#N)s3)cc2)no1)c1cccc2ccccc12 (centres undefined)
[1]
  IC50: 0.6 µM

## Cc1ccc(-c2noc([C@H](C)c3ccc(-c4ccccc4)c(F)c3)n2)cc1NCc1ccc(C(=O)O)s1
[1]
  IC50: 4 µM

## Cc1ccc(NCC(C)(C)C)cc1-c1noc(C(C)c2cccc3ccccc23)n1 (centres undefined)
[1]
  IC50: > 200 µM
